Numbered stars: 1 amine (or outer) side, 2 acyl side, 3 side chain; on linkers, the order of the positions; unused ones are H or OH. Square brackets hold non-standard residues; d marks the D form. Side chains are listed from the residue outwards. Peptide text beside a SMILES is read from it. * marks the point of attachment. C18 diacid = O=C(O)CCCCCCCCCCCCCCCCC(=O)*; γGlu = O=C(O)[C@H](CCC(=O)[*:2])N[*:1]; AEEA = NCCOCCOCC(=O)O; Aib = CC(C)(N)C(=O)O
How the values were obtained:
in vivo = conditions: mouse, sc
Procedure: Compound exposure was measured by Luminescence Oxygen Channeling Immunoassay (LOCI). […] The three reactants were combined with the analyte and formed a two-sited immuno-complex. Illumination of the complex released singlet oxygen […] from the donor beads. They were channeled into the acceptor beads and triggered a chemiluminescence response which was measured in an EnVision plate reader (PerkinElmer). The amount of light was proportional to the concentration of the analyte. As calibrators, a dilution line of the relevant analyte in rat/mouse plasma was included.
Plasma concentration-time profiles were analysed using non-compartmental analysis (NCA) using Phoenix WinNonlin Professional 6.3 (Pharsight, Mountain View, CA, US). Calculations were performed using full concentration-time profile values or sparse sampling concentration-time values as appropriate.

Human GCGR = target: T1, Human GCGR (Homo sapiens, UniProt P47871); experiment: Receptor potency, CRE-luciferase functional assay in BHK cells; type: cell-based; conditions: Human receptors, whole BHK cells, 3 h 37°C, value (95% CI)
T1 construct: a plasmid encoding either the glucagon receptor or the GLP-1 receptor from the relevant species; expressed in transfected cells
T1 sequence (P47871 26-477): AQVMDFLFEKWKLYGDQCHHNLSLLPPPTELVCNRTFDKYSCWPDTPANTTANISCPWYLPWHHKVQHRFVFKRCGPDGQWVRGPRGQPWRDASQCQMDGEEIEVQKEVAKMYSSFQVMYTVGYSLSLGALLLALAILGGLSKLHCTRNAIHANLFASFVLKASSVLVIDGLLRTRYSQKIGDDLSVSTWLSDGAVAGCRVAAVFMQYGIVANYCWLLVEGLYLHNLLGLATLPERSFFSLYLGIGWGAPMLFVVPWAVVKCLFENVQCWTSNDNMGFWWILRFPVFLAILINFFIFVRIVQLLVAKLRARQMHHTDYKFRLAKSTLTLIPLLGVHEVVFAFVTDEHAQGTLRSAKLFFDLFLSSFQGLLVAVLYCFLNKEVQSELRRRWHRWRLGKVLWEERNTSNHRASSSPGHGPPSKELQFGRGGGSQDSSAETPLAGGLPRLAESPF
Procedure: (§1) The binding assay was performed on cell membranes in the presence of 1% (v/v) species-specific heparin-treated pooled plasma (Bioreclamation IVT, Westbury, NY) diluted in assay buffer (50 mM HEPES supplemented with 5 mM EGTA, 5 mM MgCl2, and 0.005% (v/v) Tween 20, pH7.4). […] Cells stably expressing an individual receptor of interest were grown at 5% CO2, 37°C in DMEM (supplemented with 10% FCS, 0.5 mg/ml G418 and 0.3 mg/ml hygromycin). Membrane preparations were made from cells harvested at approximately 80% confluence, washed and homogenized in 20 mM HEPES with 0.1 mM EDTA, pH 7.4. Protein concentration was determined, and the membranes were stored at -80°C until use. The membrane binding assay was performed in a 96-well OptiPlate (PerkinElmer) in a total volume of 200 μl. Test compounds were dissolved in 80% DMSO and further diluted in assay buffer. 50 μl of diluted plasma was added to the assay plate wells followed by addition of test compounds (25 μl), cell membranes (50 μl, 0.06 mg/ml), SPA beads (20 mg/ml in assay buffer) and radioligand (60,000 cpm/well, corresponding to 0.06 nM; 2200 Ci/mmol. Each assay plate was incubated for 2 h at 30°C, centrifuged at 1500 rpm for 10 minutes and counted in a TopCount NXT instrument (PerkinElmer).
(§2) Functional assays were performed on whole cells in the absence or presence of 100% species-specific heparin-treated pooled plasma (Bioreclamation IVT). […] The cells were cultured with DMEM (supplemented with GlutaMAX, 10% FBS, 0.5 mg/ml G418 and 0.3 mg/ml hygromycin) at 5% CO2 and 37°C. At approximately 80–90% confluence, cells were washed with PBS and harvested with Versene (Life Technologies, Carlsbad, CA). The cells were counted and plated into 96-well microtiter plates coated with poly-D-Lys (Corning BioCoat) with 5,000 cells/well and thereafter incubated overnight in growth media. The next day the media was changed to assay buffer (DMEM without phenol red, supplemented with GlutaMAX, 10 mM HEPES, 1% ovalbumin and 0.1% Pluronic F-68) or to 100% plasma. In the absence of plasma, compounds were diluted in assay buffer. In assays tested with plasma, compounds were diluted in pure plasma. Buffer was removed from the plates and 50 μl of test compound dilutions was added to the plates followed by 50 μl of plasma or the same buffer used for compound dilution. The assay plates were incubated for 3 h in a 5% CO2 incubator at 37°C. The plates were then transferred to room temperature for 15 min and 100 μl Steadylite Plus reagent (PerkinElmer) was added to each well. The plates were shaken for 30 min at room temperature while protected from light after which luminescence was measured.
(§3) For the receptor binding assays, logIC50 values were calculated using non-linear regression analysis. The error estimation was reported as the 95% confidence interval. […] The calculations were performed in GraphPad Prism 6.4 (GraphPad, San Diego, CA) and error estimation was expressed as the 95% confidence interval. […] Averages, error estimation, ratios and plasma shifts were all calculated on logIC50 or logEC50 values and transformed to the anti-log values for reporting purposes.

Human GLP-1R = Human GLP-1R (Homo sapiens, UniProt P43220); experiment: as above; type: cell-based; conditions: Human receptors, whole BHK cells, 100% species-specific plasma, 3 h 37°C, value (95% CI)
Sequence of Human GLP-1R (P43220 24-463): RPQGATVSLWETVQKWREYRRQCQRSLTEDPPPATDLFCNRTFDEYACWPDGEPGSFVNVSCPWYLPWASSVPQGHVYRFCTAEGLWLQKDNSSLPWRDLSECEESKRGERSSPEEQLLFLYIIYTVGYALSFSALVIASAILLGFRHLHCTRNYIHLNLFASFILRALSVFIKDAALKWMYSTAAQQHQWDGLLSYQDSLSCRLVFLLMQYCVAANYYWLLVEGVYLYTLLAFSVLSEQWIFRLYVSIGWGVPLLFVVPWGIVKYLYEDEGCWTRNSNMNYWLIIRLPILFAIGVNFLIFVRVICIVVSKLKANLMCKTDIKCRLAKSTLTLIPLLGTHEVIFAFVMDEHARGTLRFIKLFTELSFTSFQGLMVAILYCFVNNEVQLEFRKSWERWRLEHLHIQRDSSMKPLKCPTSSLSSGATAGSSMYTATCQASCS
Procedure: as §1, §2, §3

DIO mice [1] = experiment: Subchronic effect on energy expenditure in DIO mice (indirect calorimetry); type: in vivo, mouse; conditions: 5 nmol/kg s.c. once daily, eleven days
Procedure: DIO mice (n = 8) were treated once daily s.c. in the morning for eleven days with vehicle or 5 nmol/kg NN1177. Forty-eight hours prior to first dose and during the study, the metabolic phenotype was determined using the PhenoMaster system (TSE Systems GmbH, Bad Homburg, Germany). During this period, air flow, temperature, oxygen- and carbon dioxide content, oxygen uptake (VO2) and carbon dioxide production (VCO2) were simultaneously measured using standard indirect calorimetry analysis. The respiratory exchange rate (RER) and energy expenditure (EE) were calculated automatically from VO2 and VCO2. Furthermore, voluntary activity in x-y dimensions was determined. All parameters were measured simultaneously for one min per cage in two cages at a time, resulting in a time resolution of data points of 9 min. Statistical analysis was performed as one-way ANOVA followed by Dunnets post-hoc test. Statistics on body weight was performed as one-way ANOVA at the last day of treatment. Statistics on energy expenditure data was calculated using two-way ANOVA with repeated measures with Bonferroni’s post hoc test. Statistical analysis was performed on average light-dark period values (only raw data, no mean data is presented). p<0.05 was considered statistically significant. GraphPad Prism 6.4 (GraphPad) was used for all in vivo data visualization as well as statistical analyses.

DIO mice [2] = experiment: Acute effect on glucose tolerance in DIO mice (IPGTT); type: in vivo, mouse; conditions: 3 or 5 nmol/kg s.c., at Cmax and at Cmin, p<0.001
Procedure: All animals received a single s.c. injection of compound at 4 pm, 21 h prior to administration of glucose (for all treated animals to have equally affected food intake in the dark period prior to the intraperitoneal glucose tolerance test (IPGTT)). […] Animals were fasted for 5–6 h prior to intraperitoneal (i.p.) injection of 2 g/kg glucose.

DIO rats = experiment: Oral glucose tolerance in DIO rats at steady state; type: in vivo, rat; conditions: 3 nmol/kg s.c. once daily, 3 g/kg oral glucose, p<0.05
Procedure: Oral glucose tolerance was evaluated on study day 15, 5 h post-dosing (at Cmax). Animals were fasted for 5 h prior to oral administration of glucose (3 g/kg). […] Conscious animals were MR-scanned prior to initiation of treatment and at the end of the treatment period.

| half-life (in vivo) [h] | EC50 (Human GCGR; GCGR EC50, pM (95% CI) 0% plasma, 0% plasma) [pM] | EC50 (Human GCGR; GCGR EC50, pM (95% CI) 100% plasma, 100% species-specific plasma) [pM] | EC50 (Human GLP-1R) [pM] | Compound | Body weight loss during treatment period (DIO mice [1]) | Physical activity (DIO mice [1]) | Respiratory exchange ratio (RER) (DIO mice [1]; light and dark period, p<0.001) | Energy expenditure per body weight (DIO mice [1]; light and dark period, p<0.01 day 3, p<0.001 day 5–11) | Glucose tolerance (IPGTT) vs vehicle (DIO mice [2]; 2 g/kg glucose i.p.) | Basal blood glucose vs vehicle (DIO mice [2]) | Oral glucose tolerance vs vehicle (DIO rats) |
| --- | --- | --- | --- | --- | --- | --- | --- | --- | --- | --- | --- |
| 11 |  |  |  | CC(C)C[C@H](NC(=O)[C@H](CC(C)C)NC(=O)[C@H](Cc1c[nH]c2ccccc12)NC(=O)[C@H](CCC(N)=O)NC(=O)[C@@H](NC(=O)[C@H](Cc1ccccc1)NC(=O)[C@H](CCC(=O)O)NC(=O)[C@H](CCCNC(=N)N)NC(=O)[C@H](C)NC(=O)[C@H](C)NC(=O)[C@H](CCCNC(=N)N)NC(=O)[C@H](CO)NC(=O)[C@H](CC(=O)O)NC(=O)[C@H](CC(C)C)NC(=O)[C@H](Cc1ccc(O)cc1)NC(=O)[C@H](CCCCN)NC(=O)[C@H](CO)NC(=O)[C@H](CC(C)C)NC(=O)[C@H](CC(=O)O)NC(=O)[C@H](CO)NC(=O)[C@@H](NC(=O)[C@H](Cc1ccccc1)NC(=O)[C@@H](NC(=O)CNC(=O)[C@H](CCC(=O)O)NC(=O)C(C)(C)NC(=O)[C@@H](N)Cc1c[nH]cn1)[C@@H](C)O)[C@@H](C)O)C(C)C)C(=O)N[C@@H](CC(N)=O)C(=O)N[C@@H](CCCCNC(=O)CC[C@H](NC(=O)CC[C@H](NC(=O)COCCOCCNC(=O)COCCOCCNC(=O)CC[C@H](NC(=O)CCCCCCCCCCCCCCCCC(=O)O)C(=O)O)C(=O)O)C(=O)O)C(N)=O [GLP-1 reference] (H-H[Aib]EGTFTSDLSKYLDSRAAREFVQWLLNK([γGlu-γGlu-AEEA-AEEA-γGlu-C18 diacid])-NH2) |  |  |  |  |  |  |  |
|  | 1.83 | 312 | 149 | CC(C)C[C@H](NC(=O)[C@H](Cc1ccc(O)cc1)NC(=O)[C@H](CCCCN)NC(=O)[C@H](CO)NC(=O)[C@H](CC(C)C)NC(=O)[C@H](CC(=O)O)NC(=O)[C@H](CO)NC(=O)[C@@H](NC(=O)[C@H](Cc1ccccc1)NC(=O)[C@@H](NC(=O)CNC(=O)[C@H](CCC(N)=O)NC(=O)C(C)(C)NC(=O)[C@@H](N)Cc1c[nH]cn1)[C@@H](C)O)[C@@H](C)O)C(=O)N[C@@H](CCC(=O)O)C(=O)N[C@@H](CO)C(=O)N[C@@H](CCCCN)C(=O)N[C@@H](CCCNC(=N)N)C(=O)N[C@@H](C)C(=O)N[C@@H](CCCNC(=N)N)C(=O)N[C@@H](CCC(=O)O)C(=O)N[C@@H](Cc1ccccc1)C(=O)N[C@H](C(=O)N[C@@H](CCC(N)=O)C(=O)N[C@@H](Cc1c[nH]c2ccccc12)C(=O)N[C@@H](CC(C)C)C(=O)N[C@@H](CC(C)C)C(=O)N[C@@H](CCCCNC(=O)CC[C@H](NC(=O)CC[C@H](NC(=O)[C@H](CO)NC(=O)[C@H](CCC(=O)O)NC(=O)[C@H](CO)NC(=O)CC[C@H](NC(=O)CC[C@H](NC(=O)CCCCCCCCCCCCCCCCC(=O)O)C(=O)O)C(=O)O)C(=O)O)C(=O)O)C(=O)N[C@H](C(N)=O)[C@@H](C)O)C(C)C [NN1177] (H-H[Aib]QGTFTSDLSKYLESKRAREFVQWLLK([γGlu-γGlu-Ser-Glu-Ser-γGlu-γGlu-C18 diacid])T-NH2) | approximately 30% | not affected | decreased significantly | increased | improved | improved | significantly impaired |
